Our source for the EC50 and Ki values is ChEMBL document CHEMBL5236657, “Synthesis and pharmacological validation of a novel radioligand for the orphan GPR88 receptor” (Bioorg Med Chem Lett, 2023).

Molecules are shown by their SMILES.

In assay [1] the target is T1, G protein-coupled receptor 88 (Homo sapiens, UniProt Q9GZN0).
Description: Agonist activity at GPR88 (unknown origin) transfected in HEK293 cells assessed as cAMP level by GloSensor cAMP assay
Assay [2] deals with T1, G protein-coupled receptor 88. The source holds these as a separate data set.
Description: Displacement of [3H]RTI-33 from GPR88 (unknown origin) by competition binding assay

As a reminder, the EC50 is the concentration at which the effect is half-maximal. As usually defined, the Ki is a dissociation constant, usually derived from enzyme kinetics or from competition with a known ligand.

T1 sequence (Q9GZN0 whole entry): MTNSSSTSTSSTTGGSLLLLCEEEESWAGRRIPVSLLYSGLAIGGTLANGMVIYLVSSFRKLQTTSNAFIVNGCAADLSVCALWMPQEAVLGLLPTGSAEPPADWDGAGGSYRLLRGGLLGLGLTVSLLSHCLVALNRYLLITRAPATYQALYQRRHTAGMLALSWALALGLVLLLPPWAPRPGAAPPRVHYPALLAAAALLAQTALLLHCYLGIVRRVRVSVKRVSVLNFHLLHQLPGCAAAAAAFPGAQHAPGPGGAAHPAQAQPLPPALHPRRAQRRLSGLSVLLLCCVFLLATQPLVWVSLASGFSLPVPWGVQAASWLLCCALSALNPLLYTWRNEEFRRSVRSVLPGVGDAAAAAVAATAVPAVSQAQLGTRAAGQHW

Regarding `CCCC(C)COc1ccc([C@H](CN)NC(=O)[C@@H](C)c2ccccc2)cc1` (some centres not stated), the EC50 in assay [1] was determined as 0.304 µM. The compound further showed a Ki in assay [2] of 0.219 µM.
